Results taken from patent US7138361B2, “Herbicidal heterocycles” (E. I. du Pont de Nemours and Company, priority 2000, dated 2006).

What was measured:
Assay in all cases: Test D greenhouse paddy-water test in rice
Assay type in all cases: in vivo
Conditions in all cases: 21 days, 0-100 scale
[1] = tested on: Echinochloa crus-galli (Ecg)
Text: (§1) Four plastic pots (ca. 16-cm diameter) per rate were partially filled with sterilized Tama silt loam soil comprised of a 35:50:15 ratio of sand, silt and clay and 2.6% organic matter. Separate plantings for each of the four pots were as follows. Seeds from the U.S. of Heteranthera limosa (Hl), Monochoria vaginalis (Mv), Ammania auriculata (Aa), and Sphenoclea zeylanica (Sz) were planted into one 16-cm pot for each rate. Seeds from the U.S. of Cyperus iria (Ci), Leptochloa fascicularis (Li), one stand of 9 or 10 direct-seeded rice seedlings (Oryza saliva cv. ‘Japonica—M202’; Oss), and one stand of 6 transplanted rice seedlings (Oryza sativa cv. ‘Japonica—M202’; Ost) were planted into one 16-cm pot for each rate. Seeds from the U.S. of Cyperus difformis (Cd), Alisma plantago-aquatica (Ap), and Scirpus mucronatus (Sm) were planted into one 16-cm pot for each rate. Seeds from the U.S. of Echinochloa crus-galli (Ecg), Echinochloa oryzicola (Eor), Echinochloa oryzoides (Eoz) and Echinochloa colonum (Ecc) were planted into one 16-cm pot for each rate. Plantings were sequential so that crop and weed species were at the 2.0 to 2.5-leaf stage at time of treatment.
(§2) Potted plants were grown in a greenhouse with day/night temperature settings of 29.5/26.7° C., and supplemental balanced lighting was provided to maintain a 16-hour photoperiod. Test pots were maintained in the greenhouse until test completion.
(§3) Chemical treatments consisting of Compound 1 of Index Table A (Cmpd 1), daimuron (Cmpd D), quinoclamine (Cmpd Q) and combinations thereof were formulated in acetone. At time of treatment, test pots were flooded to 3 cm above the soil surface, treated by application of test compounds directly to the paddy water, and then maintained at that water depth for the duration of the test. Effects of treatments on rice and weeds were visually evaluated by comparison to untreated controls after 21 days. Plant response ratings are reported on a 0 to 100 scale; where 0 is no effect and 100 is complete control. ND means no data.
(§4) Colby's equation was used to calculate the expected additive herbicidal effect of the mixtures of Compound 1 with daimuron (Cmpd D) and quinoclamine (Cmpd Q). Colby's equation (Colby, S. R “Calculating Synergistic and Antagonistic Responses of Herbicide Combinations,” Weeds, 15(1), pp 20–22 (1967)) calculates the expected additive effect of herbicidal mixtures, and for two active ingredients is of the form: Pa+b=Pa+Pb−(PaPb/100) wherein Pa+b is the percentage effect of the mixture expected from additive contribution of the individual components, • Pa is the observed percentage effect of the first active ingredient at the same use rate as in the mixture, and • Pb is the observed percentage effect of the second active ingredient at the same use rate as in the mixture.

[2] = tested on: transplanted rice seedlings (Oryza sativa cv. 'Japonica—M202'; Ost)
Text: as §1, §2, §3, §4

Cyperus difformis (Cd) = tested on: Cyperus difformis (Cd)
Text: as §1, §2, §3, §4

[3] = tested on: Alisma plantago-aquatica (Ap)
Text: as §1, §2, §3, §4

Heteranthera limosa (Hl) = tested on: Heteranthera limosa (Hl)
Text: as §1, §2, §3, §4

[4] = tested on: Echinochloa colonum (Ecc)
Text: as §1, §2, §3, §4

Scirpus mucronatus (Sm) = tested on: Scirpus mucronatus (Sm)
Text: as §1, §2, §3, §4

[5] = tested on: Monochoria vaginalis (Mv)
Text: as §1, §2, §3, §4

Ammania auriculata (Aa) = tested on: Ammania auriculata (Aa)
Text: as §1, §2, §3, §4

[6] = tested on: Leptochloa fascicularis (Li)
Text: as §1, §2, §3, §4

[7] = tested on: Echinochloa oryzicola (Eor)
Text: as §1, §2, §3, §4

[8] = tested on: direct-seeded rice seedlings (Oryza saliva cv. 'Japonica—M202'; Oss)
Text: as §1, §2, §3, §4

Cyperus iria (Ci) = tested on: Cyperus iria (Ci)
Text: as §1, §2, §3, §4

[9] = tested on: Sphenoclea zeylanica (Sz)
Text: as §1, §2, §3, §4

[10] = tested on: Echinochloa oryzoides (Eoz)
Text: as §1, §2, §3, §4

CC(C)(C)c1ccn(C2SCN(c3cccc(C(F)(F)F)c3)C2=O)n1 (centres unmarked) [Compound 1] was tested, and the “Obs. (observed effect) Ecg” value ([1]; 32 g/ha alone) was 0, the “Obs. (observed effect) Ecg” value ([1]; 64 g/ha alone) was 85 and the “Obs. (observed effect) Ecg” value ([1]; 125 g/ha alone) was 100. The “Obs. (observed effect) Ecg” value ([1]; 250 g/ha alone) was 100, the “Obs. (observed effect) Ecg” value ([1]; 500 g/ha alone) was 100 and the “Obs. (observed effect) Ost” value ([2]; 32 g/ha alone) was 15. For the same compound, the “Obs. (observed effect) Ost” value ([2]; 64 g/ha alone) was 0, the “Obs. (observed effect) Ost” value ([2]; 125 g/ha alone) was 0 and the “Obs. (observed effect) Ost” value ([2]; 250 g/ha alone) was 20. For the same compound, the “Obs. (observed effect) Ost” value ([2]; 500 g/ha alone) was 60, the “Obs. (observed effect) Cd” value (Cyperus difformis (Cd); 32 g/ha alone) was 100 and the “Obs. (observed effect) Cd” value (Cyperus difformis (Cd); 64 g/ha alone) was 100. The “Obs. (observed effect) Cd” value (Cyperus difformis (Cd); 125 g/ha alone) was 100, the “Obs. (observed effect) Cd” value (Cyperus difformis (Cd); 250 g/ha alone) was 100 and the “Obs. (observed effect) Cd” value (Cyperus difformis (Cd); 500 g/ha alone) was 100. For the same compound, the “Obs. (observed effect) Ap” value ([3]; 32 g/ha alone) was 100, the “Obs. (observed effect) Ap” value ([3]; 64 g/ha alone) was 100 and the “Obs. (observed effect) Ap” value ([3]; 125 g/ha alone) was 100. For the same compound, the “Obs. (observed effect) Ap” value ([3]; 250 g/ha alone) was 100, the “Obs. (observed effect) Ap” value ([3]; 500 g/ha alone) was 100 and the “Obs. (observed effect) Hl” value (Heteranthera limosa (Hl); 64 g/ha alone) was 40. For the same compound, the “Obs. (observed effect) Hl” value (Heteranthera limosa (Hl); 125 g/ha alone) was 90, the “Obs. (observed effect) Hl” value (Heteranthera limosa (Hl); 250 g/ha alone) was 100 and the “Obs. (observed effect) Hl” value (Heteranthera limosa (Hl); 500 g/ha alone) was 100. The “Obs. (observed effect) Ecc” value ([4]; 32 g/ha alone) was 0, the “Obs. (observed effect) Ecc” value ([4]; 64 g/ha alone) was 100 and the “Obs. (observed effect) Ecc” value ([4]; 125 g/ha alone) was 100. The “Obs. (observed effect) Ecc” value ([4]; 250 g/ha alone) was 100, the “Obs. (observed effect) Ecc” value ([4]; 500 g/ha alone) was 100 and the “Obs. (observed effect) Sm” value (Scirpus mucronatus (Sm); 32 g/ha alone) was 60. For the same compound, the “Obs. (observed effect) Sm” value (Scirpus mucronatus (Sm); 64 g/ha alone) was 100, the “Obs. (observed effect) Sm” value (Scirpus mucronatus (Sm); 125 g/ha alone) was 100 and the “Obs. (observed effect) Sm” value (Scirpus mucronatus (Sm); 250 g/ha alone) was 100. The “Obs. (observed effect) Sm” value (Scirpus mucronatus (Sm); 500 g/ha alone) was 100, the “Obs. (observed effect) Mv” value ([5]; 32 g/ha alone) was 100 and the “Obs. (observed effect) Mv” value ([5]; 64 g/ha alone) was 100. For the same compound, the “Obs. (observed effect) Mv” value ([5]; 125 g/ha alone) was 100, the “Obs. (observed effect) Mv” value ([5]; 250 g/ha alone) was 100 and the “Obs. (observed effect) Mv” value ([5]; 500 g/ha alone) was 100. For the same compound, the “Obs. (observed effect) Aa” value (Ammania auriculata (Aa); 32 g/ha alone) was 85, the “Obs. (observed effect) Aa” value (Ammania auriculata (Aa); 64 g/ha alone) was 95 and the “Obs. (observed effect) Aa” value (Ammania auriculata (Aa); 125 g/ha alone) was 100. For the same compound, the “Obs. (observed effect) Aa” value (Ammania auriculata (Aa); 250 g/ha alone) was 100, the “Obs. (observed effect) Aa” value (Ammania auriculata (Aa); 500 g/ha alone) was 100 and the “Obs. (observed effect) Lf” value ([6]; 32 g/ha alone) was 90. The “Obs. (observed effect) Lf” value ([6]; 64 g/ha alone) was 100, the “Obs. (observed effect) Lf” value ([6]; 125 g/ha alone) was 100 and the “Obs. (observed effect) Lf” value ([6]; 250 g/ha alone) was 100. For the same compound, the “Obs. (observed effect) Lf” value ([6]; 500 g/ha alone) was 100, the “Obs. (observed effect) Eor” value ([7]; 32 g/ha alone) was 0 and the “Obs. (observed effect) Eor” value ([7]; 64 g/ha alone) was 30. For the same compound, the “Obs. (observed effect) Eor” value ([7]; 125 g/ha alone) was 40, the “Obs. (observed effect) Eor” value ([7]; 250 g/ha alone) was 100 and the “Obs. (observed effect) Eor” value ([7]; 500 g/ha alone) was 100. For the same compound, the “Obs. (observed effect) Oss” value ([8]; 32 g/ha alone) was 40, the “Obs. (observed effect) Oss” value ([8]; 64 g/ha alone) was 40 and the “Obs. (observed effect) Oss” value ([8]; 125 g/ha alone) was 70. The “Obs. (observed effect) Oss” value ([8]; 250 g/ha alone) was 100, the “Obs. (observed effect) Oss” value ([8]; 500 g/ha alone) was 100 and the “Obs. (observed effect) Ci” value (Cyperus iria (Ci); 32 g/ha alone) was 95. The “Obs. (observed effect) Ci” value (Cyperus iria (Ci); 64 g/ha alone) was 100, the “Obs. (observed effect) Ci” value (Cyperus iria (Ci); 125 g/ha alone) was 100 and the “Obs. (observed effect) Ci” value (Cyperus iria (Ci); 250 g/ha alone) was 100. For the same compound, the “Obs. (observed effect) Ci” value (Cyperus iria (Ci); 500 g/ha alone) was 100, the “Obs. (observed effect) Sz” value ([9]; 32 g/ha alone) was 100 and the “Obs. (observed effect) Sz” value ([9]; 64 g/ha alone) was 100. The “Obs. (observed effect) Sz” value ([9]; 125 g/ha alone) was 100, the “Obs. (observed effect) Sz” value ([9]; 250 g/ha alone) was 100 and the “Obs. (observed effect) Sz” value ([9]; 500 g/ha alone) was 100. For the same compound, the “Obs. (observed effect) Eoz” value ([10]; 32 g/ha alone) was 20, the “Obs. (observed effect) Eoz” value ([10]; 64 g/ha alone) was 100 and the “Obs. (observed effect) Eoz” value ([10]; 125 g/ha alone) was 100. The “Obs. (observed effect) Eoz” value ([10]; 250 g/ha alone) was 100 and the “Obs. (observed effect) Eoz” value ([10]; 500 g/ha alone) was 100.
